# Target: T1, human TSHR (Homo sapiens, UniProt P16473)
# T1 construct: expressed in transfected cells
# Assay: Antagonist activity using TSH-induced cAMP generation in human TSHR-stably expressing CHO cells
# Assay type: cell-based
# Details: human TSH 50 ng/mL
# Protocol: Measurement of antagonist activity using TSH-induced cAMP generation in human TSHR-stably expressing CHO cells as an indicator
# The gene sequence (reference number: NM_000369.2) of a human TSHR was inserted into multiple cloning sites of pcDNA3.1 (+). Prepared plasmid vectors were introduced into CHO cells using a lipofection method, and human TSHR-stably expressing CHO cells were established. Obtained cells were seeded in a 96-well poly-D-lysine-coated plate at 5 × 10^4 cells/well and cultured in an F12 culture medium containing 10%FBS, 400 µg/mL of G418, 50 U/mL of penicillin, and 50 µg/mL of streptomycin under conditions of 37°C and 5% CO2 for one day. After the culture medium was removed, the cells were washed twice with 100 µL of an assay buffer solution (Hanks' Balanced Salt Solution containing 20 mM HEPES and 1 mM IBMX) per well. 30 µL of a test compound-containing assay buffer solution was added to the well and incubated at room temperature for 15 minutes. Next, 30 µL of an assay buffer solution containing human TSH (final concentration: 50 ng/mL, R&D Systems, Inc.) was added thereto and incubated at 37°C for one hour. A supernatant was removed, a Lysis and Detection Buffer 2(Cisbio) was added thereto, and the mixture was incubated at room temperature for one hour to prepare a cell lysate. According to the instruction manual of a cAMP Gs HiRange kit (Cisbio), the cell lysate, d2-labeled cAMP, and anti-cAMP Europium Cryptate labeled antibodies (Cisbio) were reacted together in a 384-well white microplate. Next, fluorescence intensity ratios (measurement wavelengths: 665 nm/620 nm) were measured using a multi-plate reader (PHERAstar FSX, BMG LABTECH, Japan). The fluorescence intensity ratio of each sample was converted to a cAMP content using a standard curve. The cAMP content was converted as a percentage of the control value to calculate a cAMP generation rate. The cAMP generation rates were plotted against the test compound concentrations using Prism (Graph Pad Software Inc.) to calculate IC50 values. The IC50's of the individual test compounds are shown in the above tables. In the tables, IC50 < 0.3 µM was denoted as A, and 0.3 µM ≤ IC50 < 30 µM was denoted as B. Cases where the IC50 values were not calculated for test compounds from which activity was recognized are denoted as C.
# T1 sequence (P16473 21-764): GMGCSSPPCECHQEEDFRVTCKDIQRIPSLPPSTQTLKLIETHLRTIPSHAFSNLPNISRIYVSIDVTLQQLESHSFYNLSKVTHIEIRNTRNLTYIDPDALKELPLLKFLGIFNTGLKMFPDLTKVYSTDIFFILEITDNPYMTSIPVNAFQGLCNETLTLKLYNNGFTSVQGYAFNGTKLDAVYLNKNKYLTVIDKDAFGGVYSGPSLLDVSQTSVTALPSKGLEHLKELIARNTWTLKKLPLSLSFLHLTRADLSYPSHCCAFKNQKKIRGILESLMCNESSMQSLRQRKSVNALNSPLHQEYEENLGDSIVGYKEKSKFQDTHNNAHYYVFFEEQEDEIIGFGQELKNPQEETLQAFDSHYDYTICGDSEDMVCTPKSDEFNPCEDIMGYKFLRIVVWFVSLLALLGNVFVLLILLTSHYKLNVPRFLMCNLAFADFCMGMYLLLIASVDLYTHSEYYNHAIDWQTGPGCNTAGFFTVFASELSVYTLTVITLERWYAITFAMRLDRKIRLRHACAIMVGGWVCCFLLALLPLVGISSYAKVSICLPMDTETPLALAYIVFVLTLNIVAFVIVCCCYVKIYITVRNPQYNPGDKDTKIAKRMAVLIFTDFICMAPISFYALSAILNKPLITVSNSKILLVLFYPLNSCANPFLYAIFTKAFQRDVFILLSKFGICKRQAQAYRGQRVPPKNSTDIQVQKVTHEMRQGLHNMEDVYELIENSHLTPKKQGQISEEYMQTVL
row,IC50 [nM],SMILES
1,< 300,"NC(=O)NCc1ncccc1-c1ccc(NC(=O)C2CC(F)(F)C2)c(F)c1Cc1ccccc1F [Example G-4, 3,3-Difluoro-N-(2-fluoro-3-(2-fluorobenzyl)-4-(2-(ureidomethyl)pyridin-3-yl)phenyl)cyclobutane-1-carboxamide]"
2,< 300,NC(=O)CCc1nnccc1-c1ccc(NC(=O)OC2CC(F)(F)C2)c(F)c1Cc1ccccc1F [Example C-8]
3,300 to 30000,"CC(C)(C)OC(=O)Nc1ccc(-c2cccnc2CNC(N)=O)c(CN2CC3CCC(C2)O3)c1F [Example F-7, tert-Butyl (3-((8-oxa-3-azabicyclo[3.2.1]octan-3-yl)methyl)-2-fluoro-4-(2-(ureidomethyl)pyridin-3-yl)phenyl)carbamate]"
4,300 to 30000,"C[C@H](OC(=O)Nc1ccc(-c2ccnnc2CNC(N)=O)c(Oc2ccccc2F)c1F)C(F)(F)F [Example D-2, (S)-1,1,1-Trifluoropropan-2-yl (2-fluoro-3-(2-fluorophenoxy)-4-(3-(ureidomethyl)pyridazin-4-yl)phenyl)carbamate]"
5,300 to 30000,"Cc1nnccc1-c1ccc(NC(=O)OC(C)(C)C)c(F)c1Cc1ccccc1F [Example C-9, tert-Butyl (2-fluoro-3-(2-fluorobenzyl)-4-(3-methylpyridazin-4-yl)phenyl)carbamate]"
6,< 300,N#CC1(COC(=O)Nc2ccc(-c3cccnc3CNC(N)=O)c(Cc3ccccc3F)c2F)CC1 [Example A-8]
7,< 300,"C[C@H](OC(=O)Nc1ccc(-c2cccnc2CNC(N)=O)c(Oc2ccccc2F)c1F)C(F)(F)F [Example B-3, (S)-1,1,1-Trifluoropropan-2-yl (2-fluoro-3-(2-fluorophenoxy)-4-(2-(ureidomethyl)pyridin-3-yl)phenyl)carbamate]"
8,300 to 30000,"CC(C)(C)OC(=O)Nc1ccc(-c2cccnc2CNC(N)=O)c(CN2CCOCC2)c1F [Example F-4, tert-Butyl (2-fluoro-3-(morpholinomethyl)-4-(2-(ureidomethyl)pyridin-3-yl)phenyl)carbamate]"
9,< 300,"CC(C)(C)OC(=O)Nc1ccc(-c2cccnc2CNC(N)=O)c(Oc2ccccc2)c1F [Example B-1, tert-Butyl (2-fluoro-3-phenoxy-4-(2-(ureidomethyl)pyridin-3-yl)phenyl)carbamate]"
10,300 to 30000,"NC(=O)CCc1nnccc1-c1ccc(NC(=O)O[C@H]2C[C@H](F)C2)c(F)c1Cc1ccccc1F [Example C-7, trans-3-Fluorocyclobutyl (4-(3-(3-amino-3-oxopropyl)pyridazin-4-yl)-2-fluoro-3-(2-fluorobenzyl)phenyl)carbamate]"
11,< 300,"C[C@H](OC(=O)Nc1ccc(-c2ccnnc2CCC(N)=O)c(Oc2ccccc2F)c1F)C(F)(F)F [Example D-4, (S)-1,1,1-Trifluoropropan-2-yl (4-(3-(3-amino-3-oxopropyl)pyridazin-4-yl)-2-fluoro-3-(2-fluorophenoxy)phenyl)carbamate]"
12,< 300,"Cc1c(NC(=O)OC(C)(C)C)ccc(-c2cccnc2CNC(N)=O)c1Cc1ccccc1F [Example A-13, tert-Butyl (3-(2-fluorobenzyl)-2-methyl-4-(2-(ureidomethyl)pyridin-3-yl)phenyl)carbamate]"
13,< 300,CC(C)OC(=O)Nc1ccc(-c2cccnc2CNC(N)=O)c(Cc2ccccc2F)c1F [Example A-22]
14,< 300,"Cc1ccccc1C(=O)c1c(-c2cccnc2CNC(N)=O)ccc(NC(=O)OC(C)(C)C)c1F [Example E-1, tert-Butyl (2-fluoro-3-(2-methylbenzoyl)-4-(2-(ureidomethyl)pyridin-3-yl)phenyl)carbamate]"
15,300 to 30000,"CON(C(=O)Nc1ccc(-c2cccnc2CNC(N)=O)c(Cc2ccccc2F)c1F)C1CCCC1 [Example G-9, 1-Cyclopentyl-3-(2-fluoro-3-(2-fluorobenzyl)-4-(2-(ureidomethyl)pyridin-3-yl)phenyl)-1-methoxyurea]"
16,< 300,"C[C@H](OC(=O)Nc1ccc(-c2cccnc2CCC(N)=O)c(C(=O)c2ccccc2F)c1F)C1CC1 [Example E-5, (S)-1-Cyclopropylethyl (4-(2-(3-amino-3-oxopropyl)pyridin-3-yl)-2-fluoro-3-(2-fluorobenzoyl)phenyl)carbamate]"
17,300 to 30000,"CC(C)(C)OC(=O)Nc1ccc(-c2cccnc2CNC(N)=O)c(Cc2c(F)cccc2C#N)c1F [Example A-3, tert-Butyl (3-(2-cyano-6-fluorobenzyl)-2-fluoro-4-(2-(ureidomethyl)pyridin-3-yl)phenyl)carbamate]"

row,IC50 [nM],SMILES
1,< 300,"CC(C)(C)OC(=O)Nc1ccc(-c2ccnnc2CCC(N)=O)c(Cc2ccccc2F)c1F [Example C-4, tert-Butyl (4-(3-(3-amino-3-oxopropyl)pyridazin-4-yl)-2-fluoro-3-(2-fluorobenzyl)phenyl)carbamate]"
2,300 to 30000,"CC(C)(C)OC(=O)Nc1ccc(-c2cccnc2CNC(N)=O)c(Cc2ccccc2OCc2ccccc2)c1F [Example A-18, tert-Butyl (3-(2-(benzyloxy)benzyl)-2-fluoro-4-(2-(ureidomethyl)pyridin-3-yl)phenyl)carbamate]"
3,< 300,"CC(C)(C)OC(=O)Nc1ccc(-c2cccnc2CCC(N)=O)c(Oc2ccccc2F)c1F [Example B-6, tert-Butyl (4-(2-(3-amino-3-oxopropyl)pyridin-3-yl)-2-fluoro-3-(2-fluorophenoxy)phenyl)carbamate]"
4,< 300,"CC(C)(C)OC(=O)Nc1ccc(-c2cccnc2CCC(N)=O)c(C(=O)c2ccccc2C(F)(F)F)c1F [Example E-8, tert-Butyl (4-(2-(3-amino-3-oxopropyl)pyridin-3-yl)-2-fluoro-3-(2-(trifluoromethyl)benzoyl)phenyl)carbamate]"
5,< 300,NC(=O)NCc1ncccc1-c1ccc(NC(=O)OC[C@H]2C[C@@H]2F)c(F)c1Cc1ccccc1F (relative stereo) [Example A-32]
6,< 300,NC(=O)NCc1ncccc1-c1ccc(NC(=O)OCC2CCOC2)c(F)c1Cc1ccccc1F (stereo not drawn) [Example A-35]
7,< 300,"CC(C)(C)OC(=O)Nc1ccc(-c2ccnnc2CCC(N)=O)c(Oc2ccccc2F)c1F [Example D-3, tert-Butyl (4-(3-(3-amino-3-oxopropyl)pyridazin-4-yl)-2-fluoro-3-(2-fluorophenoxy)phenyl)carbamate]"
8,< 300,"C[C@H](OC(=O)Nc1ccc(-c2cccnc2CCC(N)=O)c(C(=O)c2ccccc2F)c1F)C(F)(F)F [Example E-4, (S)-1,1,1-Trifluoropropan-2-yl (4-(2-(3-amino-3-oxopropyl)pyridin-3-yl)-2-fluoro-3-(2-fluorobenzoyl)phenyl)carbamate]"
9,< 300,"CC(C)(C)OC(=O)Nc1ccc(-c2ccnnc2CNC(N)=O)c(Cc2ccccc2F)c1F [Example C-1, tert-Butyl (2-fluoro-3-(2-fluorobenzyl)-4-(3-(ureidomethyl)pyridazin-4-yl)phenyl)carbamate]"
10,< 300,"CC(C)(C)OC(=O)Nc1ccc(-c2cccnc2CNC(N)=O)c(Oc2ccccc2F)c1F [Example B-2, tert-Butyl (2-fluoro-3-(2-fluorophenoxy)-4-(2-(ureidomethyl)pyridin-3-yl)phenyl)carbamate]"
11,300 to 30000,"CC(c1ccccc1)c1cc(NC(=O)OC(C)(C)C)ccc1-c1cccnc1CCC(N)=O (stereo not drawn) [Example A-12, tert-Butyl (4-(2-(3-amino-3-oxopropyl)pyridine-3-yl)-3-(1-phenylethyl)phenyl)carbamate]"
12,300 to 30000,"CC(c1ccccc1)c1cc(NC(=O)OC(C)(C)C)ccc1-c1cccnc1/C=C/C(N)=O (stereo not drawn) [Example A-11, tert-Butyl (E)-(4-(2-(3-amino-3-oxopropan-1-en-1-yl)pyridin-3-yl)-3-(1-phenylethyl)phenyl)carbamate]"
13,< 300,"CC(C)(C)OC(=O)Nc1ccc(-c2cccnc2CNC(N)=O)c(Cc2ccccc2F)c1F [Example A-1, tert-Butyl (2-fluoro-3-(2-fluorobenzyl)-4-(2-(ureidomethyl)pyridin-3-yl)phenyl)carbamate]"
14,300 to 30000,"CN(C)CCCOC(=O)Nc1ccc(-c2cccnc2CNC(N)=O)c(Cc2ccccc2F)c1F [Example A-30, 3-(Dimethylamino)propyl (2-fluoro-3-(2-fluorobenzyl)-4-(2-(ureidomethyl)pyridin-3-yl)phenyl)carbamate]"
15,< 300,"NC(=O)NCc1ncccc1-c1ccc(NC(=O)OC2CCC(F)(F)C2)c(F)c1Cc1ccccc1F (stereo not drawn) [Example A-27, 3,3-Difluorocyclopentyl (2-fluoro-3-(2-fluorobenzyl)-4-(2-(ureidomethyl)pyridin-3-yl)phenyl)carbamate]"
16,> 30000,"CC(O)c1ncccc1-c1ccc(NC(=O)OC(C)(C)C)cc1Oc1ccccc1 (stereo not drawn) [Example B-7, tert-Butyl (4-(2-(1-hydroxyethyl)pyridine-3-yl)-3-phenoxyphenyl)carbamate]"

# — patent EP4818158A1, “BIARYL COMPOUND” (Kissei Pharmaceutical Co., Ltd., priority 2023, dated 2025)
